Blank lines part the entries; values can stand above or below the compound they belong to.
How the values were obtained:
[1] = Oral bioavailability in rat; type: ADME, organism-based; settings: in vivo
Plasmodium vinckei [2] = test: Antimalarial activity against Plasmodium vinckei infected in po dosed Swiss mouse; type: functional
Plasmodium falciparum [3] = test: Antiplasmodial activity against drug-sensitive Plasmodium falciparum 3D7; type: functional, organism-based
Plasmodium berghei [4] = test: Antimalarial activity against Plasmodium berghei ANKA infected in mouse assessed as reduction in parasitemia at 40 mg/kg, ip relative to control; type: functional; settings: route intraperitoneal
Plasmodium falciparum [5] = test: Antiplasmodial activity against erythrocytic stage of multidrug-resistant Plasmodium falciparum K1; type: functional, organism-based
Plasmodium falciparum [6] = test: Antiplasmodial activity against chloroquine-resistant Plasmodium falciparum K1; type: functional, organism-based
Plasmodium [7] = test: Antimalarial activity against Plasmodium infected in mouse; type: functional
[8] = Oral bioavailability in Sprague-Dawley rat; type: ADME, organism-based; settings: in vivo
Plasmodium falciparum [9] = test: Antiplasmodial activity against Plasmodium falciparum VS/1 expressing DHFR quadruple mutation by [3H]-hypoxanthine incorporation assay; type: functional, organism-based
[10] = Half life in po dosed Sprague-Dawley rat by LC/MS/MS analysis; type: ADME, organism-based; settings: in vivo
Plasmodium falciparum [11] = test: Antimalarial activity against Plasmodium falciparum VS/1 expressing DHFR quadruple mutation infected in po dosed SCID mouse assessed as reduction in parasitemia administered 3 days post infection measured on day 6; type: functional; settings: VS/1, po
Plasmodium falciparum [12] = test: Antiplasmodial activity against wild type Plasmodium falciparum TM4 by [3H]-hypoxanthine incorporation assay; settings: TM4, 3 h
Plasmodium falciparum [13] = test: Antiplasmodial activity against multidrug-resistant Plasmodium falciparum Dd2 after 72 hrs by SYBR Green staining-based fluorescence assay; type: functional, organism-based; settings: Dd2, 72 h
Plasmodium falciparum [14] = test: Antiplasmodial activity against drug-sensitive Plasmodium falciparum 3D7 after 72 hrs by SYBR Green staining-based fluorescence assay; type: functional, organism-based; settings: 3D7, 72 h
Plasmodium falciparum [15] = test: Antimalarial activity against Plasmodium falciparum infected in mouse; type: functional
Plasmodium falciparum [16] = test: Antimalarial activity against Plasmodium falciparum infected in SCID mouse; type: functional
Plasmodium berghei [17] = test: Antimalarial activity against erythrocytic stage of Plasmodium berghei infected in po dosed mouse administered for 3 days; type: functional; settings: 72 h
Plasmodium falciparum [18] = test: Antiplasmodial activity against drug-sensitive Plasmodium falciparum NF54; type: functional, organism-based
Plasmodium yoelii = test: Antiplasmodial activity against liver stage of Plasmodium yoelii; type: functional, organism-based
Plasmodium falciparum [19] = test: Antiplasmodial activity against blood stage of Plasmodium falciparum; type: functional, organism-based
[20] = Oral bioavailability in mouse; type: ADME, organism-based; settings: in vivo
Plasmodium vinckei [21] = test: Antimalarial activity against Plasmodium vinckei infected in ip dosed Swiss mouse at 0.5 to 1% parasitemia; type: functional
Plasmodium vinckei [22] = test: Antimalarial activity against Plasmodium vinckei infected in ip dosed Swiss mouse at 5 to 10% parasitemia; type: functional
Plasmodium [23] = test: Antiplasmodial activity against Plasmodium; type: functional
Plasmodium [24] = test: Antimalarial activity against Plasmodium infected in ip dosed mouse; type: functional
[25] = Half life in human; type: ADME, organism-based; settings: in vivo
Plasmodium falciparum [26] = test: Antiplasmodial activity against erythrocytic stage of multidrug-resistant Plasmodium falciparum W2; type: functional, organism-based
Plasmodium berghei [27] = test: Antimalarial activity against Plasmodium berghei str. ANKA infected in po dosed mouse assessed as reduction in parasitemia; type: functional

- bioavailability [1]: 15%
SMILES: C/C(=C1\CCOC(=O)S1)N(C=O)CCCCCCCCCCCCN(C=O)/C(C)=C1/CCOC(=O)S1
- ED50 (Plasmodium vinckei [2]): 5 mg/kg/day

- EC50 (Plasmodium falciparum [3]): 11 nM
SMILES: CCN(CC)Cc1cc(Nc2ccnc3cc(Cl)ccc23)ccc1O

- EC50 (Plasmodium falciparum [3]): 100 nM
SMILES: COc1cc2c(NC3CCN(C)CC3)nc(N3CCCN(C)CC3)nc2cc1OCc1ccccc1
- fold change (FC) (Plasmodium berghei [4]): 18

SMILES: CSc1ccc2nc(N(Cc3cccnc3)C(=O)c3ccc(C(C)(C)C)cc3)sc2c1
- EC50 (Plasmodium falciparum [5]): 326 nM

SMILES: CN1CCN(C2CCN(C(=O)CC3CCC4(CC3)OOC3(OO4)C4CC5CC(C4)CC3C5)CC2)CC1 (configuration not stated)
- IC50 (Plasmodium falciparum [6]): 1.9 nM
- ED50 (Plasmodium [7]): 1.8 mg/kg/day
- IC50 (Plasmodium falciparum [3]): 4.9 nM

SMILES: CCc1nc(N)nc(N)c1OCCCOc1ccccc1CCC(=O)O.Cl
- bioavailability [8]: 46%
- IC50 (Plasmodium falciparum [9]): 56 nM
- half-life [10]: 7.3 h
- ED50 (Plasmodium falciparum [11]): 0.3 mg/kg/day
- IC50 (Plasmodium falciparum [12]): 4.6 nM

SMILES: CCOc1ccc(F)cc1C1(O)C(N)=Nc2ccc(Cl)cc21 (configuration not stated)
- EC50 (Plasmodium falciparum [13]): 65 nM
- EC50 (Plasmodium falciparum [14]): 28 nM
- ED99 (Plasmodium falciparum [15]): 100 mg/kg/day

- EC50 (Plasmodium falciparum [18]): 1 nM
SMILES: CC(=O)N1CCN(c2ccc(CN(C(=O)/C=C/c3ccc(C(F)(F)F)cc3)[C@@H](Cc3ccccc3)C(=O)N3CCN(Cc4ccc(N(C)CCO)cc4)CC3)cc2)CC1
- ED90 (Plasmodium falciparum [16]): 8.4 mg/kg/day
- ED90 (Plasmodium berghei [17]): 54 mg/kg/day

- EC50 (Plasmodium yoelii): 7.8 nM
- EC50 (Plasmodium falciparum [19]): 17 nM
SMILES: C[C@H](NC(=O)[C@H](Cc1ccccc1)C[C@@H](O)[C@H](Cc1ccccc1)NC(=O)OC(C)(C)C)C(=O)N[C@@H]1C(=O)N(C)c2ccccc2-c2ccccc21

SMILES: CN1CCN(C2CCN(C(=O)CC3CCC4(CC3)OOC3(OO4)C4CC5CC(C4)CC3C5)CC2)CC1.Cc1ccc(S(=O)(=O)O)cc1 (configuration not stated)
- bioavailability [20]: 42%
- bioavailability [1]: 38%

- bioavailability [20]: 2%
- EC50 (Plasmodium [23]): 2 nM
SMILES: Cc1c(CCO)sc[n+]1CCCCCCCCCCCC[n+]1csc(CCO)c1C.[I-].[I-]
- ED50 (Plasmodium vinckei [2]): 13 mg/kg/day
- ED50 (Plasmodium vinckei [21]): 1 mg/kg/day
- ED50 (Plasmodium vinckei [22]): ≤ 0.5 mg/kg/day
- ED50 (Plasmodium [24]): 0.2 mg/kg/day

- half-life [25]: 1 h
SMILES: CO[C@H]1O[C@@H]2O[C@@]3(C)CC[C@H]4[C@H](C)CC[C@@H]([C@H]1C)[C@@]24OO3

- EC50 (Plasmodium falciparum [3]): 75 nM
SMILES: COc1cc2nc(N3CCCN(C)CC3)nc(NC3CCN(Cc4ccccc4)CC3)c2cc1OC
- fold change (FC) (Plasmodium berghei [4]): 2

- EC50 (Plasmodium falciparum [3]): 100 nM
SMILES: CC(C)(C)c1cc(C(=O)N2CCN(c3ncccc3C(F)(F)F)CC2)n(Cc2ccccc2)n1

SMILES: O[C@@H](c1cc(C(F)(F)F)nc2c(C(F)(F)F)cccc12)[C@H]1CCCCN1 (relative stereo) [(S,R)-MEFLOQUINE]
- half-life [25]: 336 h
- EC50 (Plasmodium falciparum [26]): 7 nM
- ED50 (Plasmodium berghei [27]): 3.3 mg/kg

— ChEMBL document CHEMBL2385043, “Recent advances in malaria drug discovery” (Bioorg Med Chem Lett, 2013)
